Source: patent US12226399B2, “Oral aqueous suspension formulation comprising carbamate compound” (SK BIOPHARMACEUTICALS CO., LTD., priority 2021, dated 2025)

Experiment: Visual wetting of cenobamate API on wetting agent solution
Assay type: physicochemical
Conditions: in the presence of poloxamer 188; time for cenobamate to fall below the surface
Procedure: Poloxamer 188 was evaluated at different concentrations for sedimentation volume, dispensability and wettability of cenobamate containing dispersion in a neat citrate or phosphate buffer at pH 3 to 7. Approximately one hundred milligrams (100 mg) of cenobamate was dispersed in 10 mL of the poloxamer liquid at the concentration of 0.10, 0.50, 1.00, and 1.50 mg/mL in phosphate buffer pH 4.2 and the dispersions were evaluated for sedimentation volume, re-dispersibility, and wettability. Additionally, separate samples containing poloxamer 188 at the concertation of 0.1 mg/ml were also prepared in citrate buffer at different levels of pH (pH 3.5, 4.2 and 5.2), and evaluated in the same manner.
The volume of the sedimentation layer is an indicator to the amount of spacing between the particles in the sediment layer. Physical observations indicated these dispersions settled rapidly but formed a loosely packed layer which was very easily re-dispersed after inversion and/or shaking (FIGS. 1 and 2).
The following intended effects that were observed are immediate wetting of most of the material after adding cenobamate to the poloxamer solution, rapid and loose initial sedimentation within first 30 minutes to 1 hour as measured by ratio of sediment volume to total volume, no caking and efficient re-dispersion, rapidly dispersing material after shaking the settled sample for 10 seconds.

NC(=O)O[C@@H](Cn1ncnn1)c1ccccc1Cl [cenobamate, carbamic acid (R)-1-(2-chlorophenyl)-2-tetrazol-2-yl-ethyl ester]
Wetting of cenobamate: good wetting
